Patent US9796706B2, “Inhibitors of Jun N-terminal kinase” (IMAGO PHARMACEUTICALS, INC., priority 2009, dated 2017)

Key:
Format in all cases: biochemical
Conditions in all cases: procedures of Example 14 (TR-FRET)
JNK1 = JNK1 (Homo sapiens (Human), UniProt P45983); experiment: JNK1 TR-FRET kinase assay (Example 14)
Method: (§1) 14.3. Active JNK 1, 2 and 3 TR-FRET Assay
(§2) (1) Assay buffer #1 with 0.0025% Tween and 1 mM DTT was prepared using JNK buffer stock solution.
(§3) (2) Assay buffer #2 with 0.025% BSA was prepared using the assay buffer #1.
(§4) (3) Test compound solution preparation: 5× compound solution was prepared using assay buffer #1 with 5% DMSO. The compound solution (10 μl/well) was added to a 384-well plate (Corning, Cat No. 3654).
(§5) (4) aJNK1, 2 or 3 preparation: aJNK stock (100 μg/ml) at −80° C. was thawed on ice and an aJNK (1.6 ng/ml) solution was prepared using assay buffer #2. The aJNK solution (20 μl/well) was added to the plate and the plate was shaken. The enzyme was incubated with the compound at RT for 10 min. (5) ATP/substrate solution preparation: ATP and substrate stocks were thawed on ice. 2.5×ATP/substrate (e.g., 25 μM or 2.5 mM ATP/50 nM EPIW-1) was prepared using assay buffer #1. The ATP/substrate (20 μl/well) was added to the plate and the plate was shaken. The plate was incubated at RT for 15 min. Note: In an exemplary assay, the final ATP concentration was about 1 mM. (6) EDTA preparation: 30 mM EDTA was prepared using 0.5M EDTA stock and assay buffer #1. The EDTA (10 μl/well) was added to the plate to quench the enzyme reaction and the plate was shaken well. (7) Detection reagent preparation: Eu-63 and SA-XL stocks were thawed on ice. 4× Eu-63/SA-XL (2 nM Eu-63/9.4 nM SA-XL) was prepared using JNK detection buffer. The Eu-63/SA-XL solution (20 μl/well) was added to the plate and the plate was shaken. The plate was incubated at RT for 1 hr before reading the plate on LJL using ratiometric method named HTRF.
(§6) 14.4. Coupled JNK 1, 2 and 3 TR-FRET Assay
(§7) (1) Assay buffer with 0.0025% Tween, 0.01% BSA, and 1 mM DTT was prepared using JNK buffer stock solution.
(§8) (2) Test compound solution preparation: 5× compound solution, including EDTA background, was prepared using assay buffer with 5% DMSO. The compound solution (10 μl/well) was added to a 384-well plate (Corning, Cat No. 3654).
(§9) (3) uJNK1,2, or 3 activation reaction preparation: uJNK activation solution was prepared using assay buffer (1.6 ng/ml MKK4, 1.6 ng/ml MKK7, 16 ng/ml uJNK, and 20 uM ATP final). The uJNK activation solution (35 μl/well) was added to the plate, the plate was shaken, and the reaction mixture was incubated with compound at 30° C. for 60 min. (4) c-Jun substrate solution preparation: 50 nM EPIW-1, c-Jun peptide, was prepared using assay buffer (15 nM final). The EPIW-1 solution (15 μl/well) was added to the plate, the plate was shaken and incubated at 30° C. for 60 min. (5) EDTA preparation: 30 mM EDTA was prepared using 0.5M EDTA stock and assay buffer. The EDTA (10 μl/well) was added to the plate to quench the enzyme reaction and the plate was shaken well. (6) Detection reagent preparation: Eu-73 and SA-XL stocks were thawed on ice. 4× Eu-73/SA-XL (2 nM Eu-73/9.4 nM SA-XL) were prepared using JNK detection buffer. The Eu-73/SA-XL solution (20 μl/well) was added to the plate. The plate was shaken and incubated at RT for 1 hr before reading the plate on LJL using ratiometric method named HTRF.

JNK3 = JNK3 (Homo sapiens (Human), UniProt P53779); experiment: JNK3 TR-FRET kinase assay (Example 14)
Sequence of JNK3 (P53779 whole entry, species assumed): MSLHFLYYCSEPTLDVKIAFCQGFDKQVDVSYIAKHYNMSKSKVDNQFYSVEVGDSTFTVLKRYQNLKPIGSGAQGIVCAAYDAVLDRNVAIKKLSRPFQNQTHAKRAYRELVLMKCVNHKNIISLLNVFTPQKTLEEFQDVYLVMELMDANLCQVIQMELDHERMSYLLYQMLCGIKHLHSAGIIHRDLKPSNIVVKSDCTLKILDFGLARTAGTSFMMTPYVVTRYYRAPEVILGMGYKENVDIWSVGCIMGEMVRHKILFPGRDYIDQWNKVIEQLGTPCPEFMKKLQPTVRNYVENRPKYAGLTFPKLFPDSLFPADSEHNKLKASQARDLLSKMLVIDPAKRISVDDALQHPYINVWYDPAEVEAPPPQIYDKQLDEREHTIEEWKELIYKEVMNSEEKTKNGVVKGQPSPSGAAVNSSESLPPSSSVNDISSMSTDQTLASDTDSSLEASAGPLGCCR
Method: as §1, §2, §3, §4, §5, §6, §7, §8, §9

JNK2 = JNK2 (Homo sapiens (Human), UniProt P45984); experiment: JNK2 TR-FRET kinase assay (Example 14)
Sequence of JNK2 (P45984 whole entry, species assumed): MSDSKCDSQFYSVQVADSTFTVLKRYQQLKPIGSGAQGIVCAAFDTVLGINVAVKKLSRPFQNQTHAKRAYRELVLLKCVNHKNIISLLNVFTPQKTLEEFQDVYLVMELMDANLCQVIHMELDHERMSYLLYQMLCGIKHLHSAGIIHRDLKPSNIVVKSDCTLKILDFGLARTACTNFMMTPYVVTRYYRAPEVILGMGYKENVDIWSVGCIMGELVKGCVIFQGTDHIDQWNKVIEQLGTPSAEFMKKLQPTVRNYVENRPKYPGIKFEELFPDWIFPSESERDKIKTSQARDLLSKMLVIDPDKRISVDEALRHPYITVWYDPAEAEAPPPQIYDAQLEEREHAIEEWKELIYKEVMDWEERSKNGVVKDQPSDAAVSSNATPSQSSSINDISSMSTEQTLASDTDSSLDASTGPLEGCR
Method: as §1, §2, §3, §4, §5, §6, §7, §8, §9

Sequence of JNK1 (P45983 other isoform, or with tags, fused parts or gaps isoform P45983-2, species assumed): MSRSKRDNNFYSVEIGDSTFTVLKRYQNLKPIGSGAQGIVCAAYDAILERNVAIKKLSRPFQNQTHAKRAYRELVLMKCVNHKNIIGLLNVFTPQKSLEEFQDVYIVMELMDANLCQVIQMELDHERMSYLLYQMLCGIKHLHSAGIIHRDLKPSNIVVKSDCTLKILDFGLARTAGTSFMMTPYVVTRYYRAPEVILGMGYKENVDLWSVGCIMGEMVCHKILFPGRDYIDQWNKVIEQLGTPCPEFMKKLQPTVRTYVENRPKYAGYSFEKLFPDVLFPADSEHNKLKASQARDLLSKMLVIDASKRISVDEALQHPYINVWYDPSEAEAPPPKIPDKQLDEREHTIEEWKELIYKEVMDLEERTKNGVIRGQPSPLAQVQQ

IC50 (JNK1) [µM] | IC50 (JNK3) [µM] | IC50 (JNK2) [µM] | Compound
0.1 to 10 | 0.1 to 10 | 0.1 to 10 | O=C(CN1C(=O)CCc2ccccc21)Nc1ccsc1-c1cscn1 [2-(2-oxo-3,4-dihydroquinolin-1(2H)-yl)-N-(2-(thiazol-4-yl)thiophen-3-yl)acetamide]
< 0.1 | < 0.1 | 0.1 to 10 | O=C(Cn1c(=O)ccc2cc(C(F)(F)F)ccc21)Nc1ccsc1-c1cscn1 [2-(2-oxo-6-(trifluoromethyl)quinolin-1(2H)-yl)-N-(2-(thiazol-4-yl)thiophen-3-yl)acetamide]
0.1 to 10 | 0.1 to 10 | 0.1 to 10 | Cc1csc(NC(=O)Cc2ccc(OCCn3ccnc3)cc2)c1-c1ncn[nH]1 [2-(4-(2-(1H-imidazol-1-yl)ethoxy)phenyl)-N-(4-methyl-3-(1H-1,2,4-triazol-5-yl)thiophen-2-yl)acetamide]
0.1 to 10 | 0.1 to 10 | 0.1 to 10 | O=C(Cc1ccc(OCCCN2CCCCC2)cc1)Nc1ccsc1-c1cscn1 [2-(4-(3-(piperidin-1-yl)propoxy)phenyl)-N-(2-(thiazol-4-yl)thiophen-3-yl)acetamide]
> 10 | > 10 | > 50 | COc1ccc(CC(=O)Nc2ccsc2-c2cn(C)cn2)cc1 [2-(4-methoxyphenyl)-N-(2-(1-methyl-1H-imidazol-4-yl)thiophen-3-yl)acetamide]
> 10 | > 10 | > 50 | COc1ccc(CC(=O)Nc2ccsc2-c2c[nH]c(C)n2)cc1 [2-(4-methoxyphenyl)-N-(2-(2-methyl-1H-imidazol-4-yl)thiophen-3-yl)acetamide]
> 50 | > 10 | > 50 | COc1ccc(CC(=O)Nc2ccsc2N2CCOC2=O)cc1 [2-(4-methoxyphenyl)-N-(2-(2-oxooxazolidin-3-yl)thiophen-3-yl)acetamide]
0.1 to 10 | > 10 | > 50 | COc1ccc(CC(=O)Nc2ccsc2-c2nc(-c3ccncc3)n[nH]2)cc1 [2-(4-methoxyphenyl)-N-(2-(3-(pyridin-4-yl)-1H-1,2,4-triazol-5-yl)thiophen-3-yl)acetamide]
0.1 to 10 | 0.1 to 10 | 0.1 to 10 | COc1ccc(CC(=O)Nc2ccsc2-c2nc(C3CCCO3)n[nH]2)cc1 (stereo not drawn) [2-(4-methoxyphenyl)-N-(2-(3-(tetrahydrofuran-2-yl)-1H-1,2,4-triazol-5-yl)thiophen-3-yl)acetamide]
0.1 to 10 | 0.1 to 10 | > 10 | COc1ccc(CC(=O)Nc2ccsc2-c2nc(C(F)(F)F)n[nH]2)cc1 [2-(4-methoxyphenyl)-N-(2-(3-(trifluoromethyl)-1H-1,2,4-triazol-5-yl)thiophen-3-yl)acetamide]
> 50 | > 50 | > 50 | COc1ccc(CC(=O)Nc2ccsc2-n2cnc(C)c2)cc1 [2-(4-methoxyphenyl)-N-(2-(4-methyl-1H-imidazol-1-yl)thiophen-3-yl)acetamide]
> 10 | > 10 | > 10 | COc1ccc(CC(=O)Nc2ccsc2-n2cc(C)cn2)cc1 [2-(4-methoxyphenyl)-N-(2-(4-methyl-1H-pyrazol-1-yl)thiophen-3-yl)acetamide]
0.1 to 10 | 0.1 to 10 | > 50 | COc1ccc(CC(=O)Nc2ccsc2-c2nnc(C)o2)cc1 [2-(4-methoxyphenyl)-N-(2-(5-methyl-1,3,4-oxadiazol-2-yl)thiophen-3-yl)acetamide]
0.1 to 10 | 0.1 to 10 | 0.1 to 10 | COc1ccc(CC(=O)Nc2ccsc2-c2cnccn2)cc1 [2-(4-methoxyphenyl)-N-(2-(pyrazin-2-yl)thiophen-3-yl)acetamide]
0.1 to 10 | 0.1 to 10 | > 10 | COc1ccc(CC(=O)Nc2sccc2-c2nnn(C)n2)cc1 [2-(4-methoxyphenyl)-N-(3-(2-methyl-2H-tetrazol-5-yl)thiophen-2-yl)acetamide]
0.1 to 10 | 0.1 to 10 | 0.1 to 10 | COc1ccc(CC(=O)Nc2sccc2-c2noc(C)n2)cc1 [2-(4-methoxyphenyl)-N-(3-(5-methyl-1,2,4-oxadiazol-3-yl)thiophen-2-yl)acetamide]
0.1 to 10 | 0.1 to 10 | 0.1 to 10 | COc1ccc(CC(=O)Nc2scc(C)c2-c2nc(C)n[nH]2)cc1 [2-(4-methoxyphenyl)-N-(4-methyl-3-(3-methyl-1H-1,2,4-triazol-5-yl)thiophen-2-yl)acetamide]
< 0.1 | < 0.1 | < 0.1 | O=C(Cn1c(=O)ccc2cc(Br)ccc21)Nc1scc(Br)c1-c1nc[nH]n1 [2-(6-bromo-2-oxoquinolin-1(2H)-yl)-N-(4-bromo-3-(1H-1,2,4-triazol-3-yl)thiophen-2-yl)acetamide]
< 0.1 | < 0.1 | < 0.1 | O=C(Cn1c(=O)ccc2cc(Br)ccc21)Nc1scc(Cl)c1-c1nc[nH]n1 [2-(6-bromo-2-oxoquinolin-1(2H)-yl)-N-(4-chloro-3-(1H-1,2,4-triazol-3-yl)thiophen-2-yl)acetamide]
0.1 to 10 | 0.1 to 10 | 0.1 to 10 | O=C(CN1C(=O)CCc2ccc(Br)cc21)Nc1scc(Br)c1-c1ncn[nH]1 [2-(7-bromo-2-oxo-3,4-dihydroquinolin-1(2H)-yl)-N-(4-bromo-3-(1H-1,2,4-triazol-5-yl)thiophen-2-yl)acetamide]
< 0.1 | < 0.1 | 0.1 to 10 | O=C(Cc1cccc2ncsc12)Nc1scc(Br)c1-c1ncn[nH]1 [2-(benzo[d]thiazol-7-yl)-N-(4-bromo-3-(1H-1,2,4-triazol-5-yl)thiophen-2-yl)acetamide]
0.1 to 10 | 0.1 to 10 | > 10 | COc1nc(-c2sccc2NC(=O)Cc2cccc3cnccc23)cs1 [2-(isoquinolin-5-yl)-N-(2-(2-methoxythiazol-4-yl)thiophen-3-yl)acetamide]
0.1 to 10 | 0.1 to 10 | 0.1 to 10 | Cc1csc(-c2sccc2NC(=O)Cc2cccc3cnccc23)n1 [2-(isoquinolin-5-yl)-N-(2-(4-methylthiazol-2-yl)thiophen-3-yl)acetamide]
0.1 to 10 | 0.1 to 10 | 0.1 to 10 | Cc1cnc(-c2sccc2NC(=O)Cc2cccc3cnccc23)s1 [2-(isoquinolin-5-yl)-N-(2-(5-methylthiazol-2-yl)thiophen-3-yl)acetamide]
0.1 to 10 | 0.1 to 10 | 0.1 to 10 | O=C(Cc1cccc2cnccc12)Nc1ccsc1-c1ncco1 [2-(isoquinolin-5-yl)-N-(2-(oxazol-2-yl)thiophen-3-yl)acetamide]
0.1 to 10 | 0.1 to 10 | 0.1 to 10 | O=C(Cc1cccc2cnccc12)Nc1ccsc1-c1nccs1 [2-(isoquinolin-5-yl)-N-(2-(thiazol-2-yl)thiophen-3-yl)acetamide]
0.1 to 10 | 0.1 to 10 | 0.1 to 10 | O=C(Cc1cccc2cnccc12)Nc1ccsc1-c1cscn1 [2-(isoquinolin-5-yl)-N-(2-(thiazol-4-yl)thiophen-3-yl)acetamide]
0.1 to 10 | 0.1 to 10 | 0.1 to 10 | O=C(Cc1cccc2cnccc12)Nc1scnc1-c1cnccn1 [2-(isoquinolin-5-yl)-N-(4-(pyrazin-2-yl)thiazol-5-yl)acetamide]
